The source of these data is BindingDB's records for doi:10.7270/Q2N014XN (Srmlsc, 2007).

Structures can show the parent of a compound that is named as a salt. Some results are limits rather than exact numbers.

For the first assay, the target named is T1, Diphosphomevalonate decarboxylase (Streptococcus pneumoniae serotype 2 (strain D39 / NCTC 7466), UniProt A0A0H2ZN59).
T1 sequence (A0A0H2ZN59 whole entry): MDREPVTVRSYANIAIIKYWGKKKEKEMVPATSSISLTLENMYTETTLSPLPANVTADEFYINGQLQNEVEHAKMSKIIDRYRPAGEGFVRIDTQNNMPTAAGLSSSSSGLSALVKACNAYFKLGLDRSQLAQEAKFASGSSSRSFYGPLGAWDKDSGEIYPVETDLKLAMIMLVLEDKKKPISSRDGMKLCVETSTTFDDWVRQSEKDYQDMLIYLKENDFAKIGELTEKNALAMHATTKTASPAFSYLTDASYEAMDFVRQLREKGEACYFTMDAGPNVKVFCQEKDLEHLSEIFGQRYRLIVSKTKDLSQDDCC
In words: S. pneumoniae DPM-DC inhibitor potency, dose response, biochemical, PK/LDH-coupled NADH fluorescence, hexokinase coupling counter-screen (AID 550).
Conditions: not given
For orientation: A counterscreen serves to expose hits that act by an unwanted route or on another target.
What is called IC50 is the concentration that gives 50% inhibition. Higher therefore signals weaker potency. `Cc1cc(N2CCOCC2)c2c(N)c(Br)cc(C)c2n1` [(6-bromo-2,8-dimethyl-4-morpholino-5-quinolyl)amine] gave an IC50 above 10000 µM. With `CCN(CC)C(=O)c1sc2[nH]c(-c3ccccn3)nc(=O)c2c1C`, it took 30 µM to reach half-maximal inhibition (IC50). In turn, `Cn1c(SCC(=O)N2CCOCC2)nnc1-c1ccc(NC(=O)c2ccccc2F)cc1` [2-fluoranyl-N-[4-[4-methyl-5-(2-morpholin-4-yl-2-oxidanylidene-ethyl)sulfanyl-1,2,4-triazol-3-yl]phenyl]benzamide] yielded an IC50 above 10000 µM. Turning to `COc1ccc2c(c1)C1(C)CC(C)(C)N2C(=O)N1c1ccccc1` (stereo not drawn) [MLS000027457], half-maximal inhibition (IC50) was put at 182 µM.

Compound `O=c1c2cc(N3CCOCC3)ccc2[nH]c(=S)n1Cc1ccccn1` [MLS000095415] displayed an IC50 of 36.1 µM. Same read-out and setting: as for `COc1cccc(C(=O)Nc2ccc(NC(=O)C(C)C)nc2)c1` [3-methoxy-N-[6-(2-methylpropanoylamino)pyridin-3-yl]benzamide], the figure is above 10000 µM. Same read-out and setting: as for `CCOC(=O)c1c(CC(C)C)csc1NC=O` [2-formamido-4-(2-methylpropyl)-3-thiophenecarboxylic acid ethyl ester], the figure is above 10000 µM. Same read-out and setting: in the case of `O=C(Nc1ccc2nn(-c3ccccc3)nc2c1)c1ccc(Br)o1` [5-bromanyl-N-(2-phenylbenzotriazol-5-yl)furan-2-carboxamide] it was 32.6 µM.

As for `N#Cc1c(S)nc2c(c1-c1cccnc1)CCCC2` [SMR000104204], it took 20.1 µM to reach half-maximal inhibition (IC50). Same read-out and setting: as for `COc1ccc2nc3oc(C(=O)NCc4cccs4)cc3cc2c1` [6-methoxy-N-(2-thenyl)furo[2,3-b]quinoline-2-carboxamide], the figure is 13.9 µM; as for `Cc1cnc(SCCc2ccncc2)nc1C` [4,5-dimethyl-2-(2-pyridin-4-ylethylsulfanyl)pyrimidine;hydrochloride], above 10000 µM. For `COc1cccc(C=Nn2c(C)nnc2C)c1OC` [(2,3-dimethoxybenzylidene)-(3,5-dimethyl-1,2,4-triazol-4-yl)amine], the half-inhibitory concentration (IC50) was above 10000 µM. The same measure, in the same setting: in the case of `CCC(=O)Nc1cccc(NC(=O)CSc2nnnn2Cc2ccccc2)c1` [MLS000068150] it was above 10000 µM; in that of `O=C(NC1CCCCC1)N(CCN1CCCC1)Cc1cc2cc3c(cc2[nH]c1=O)OCCO3` [3-cyclohexyl-1-[(7-oxo-3,6-dihydro-2H-[1,4]dioxino[2,3-g]quinolin-8-yl)methyl]-1-[2-(1-pyrrolidinyl)ethyl]urea], 15 µM.

Turning to `COc1ccc(-n2nc(C(=O)NCc3ccco3)c3c4ccccc4n(C)c3c2=O)cc1Cl` [3-(3-chloranyl-4-methoxy-phenyl)-N-(furan-2-ylmethyl)-5-methyl-4-oxidanylidene-pyridazino[4,5-b]indole-1-carboxamide], the half-inhibitory concentration (IC50) turned out to be 15.1 µM.

Turning to `Cn1ncc2c(Nc3ccc(-c4ccccc4)cc3)ncnc21` [(1-methylpyrazolo[3,4-d]pyrimidin-4-yl)-(4-phenylphenyl)amine], the IC50 was 53.7 µM.

As for `Cc1cc(O)cc(C)n1` [2,6-dimethyl-1H-pyridin-4-one], the IC50 is above 10000 µM. Same read-out and setting: as for `COc1cc(C2C3=C(CC(C)(C)CC3=O)N=C(C)C2C#N)cc(OC)c1O` (stereo not drawn), the figure is above 10000 µM; as for `CCn1c2c(c3cc(C(=O)O)ccc31)CCCC2=O` [9-ethyl-1-oxo-2,3,4,9-tetrahydro-1H-carbazole-6-carboxylic acid], 78.5 µM; as for `CCN(CC)c1nc2ccccc2n2cnnc12`, above 10000 µM. Turning to `CCCOC(=O)Cc1n[nH]c(=O)[nH]c1=O` [2-(3,5-dioxo-2H-1,2,4-triazin-6-yl)acetic acid propyl ester], the IC50 is above 10000 µM. Compound `COc1cc(C(=O)Nc2ccc3c(c2)OCO3)ccc1-n1cnnn1` [MLS000073665] yielded a half-inhibitory concentration (IC50) above 10000 µM. In turn, `COc1ccc(C(O)Cn2c(=N)n(CCCN(C)C)c3ccccc32)cc1` (stereo not drawn) [2-[2-azanylidene-3-[3-(dimethylamino)propyl]benzimidazol-1-yl]-1-(4-methoxyphenyl)ethanol;hydrochloride] came in with a concentration for half-maximal inhibition (IC50) above 10000 µM. Same read-out and setting: as for `CCOC(=O)CSc1cc(=O)n(C)c2cc(Cl)ccc12` [2-[(7-chloro-1-methyl-2-oxo-4-quinolinyl)thio]acetic acid ethyl ester], the figure is above 10000 µM; as for `COc1ccc(N2CCN(CCNS(=O)(=O)c3cccc4nsnc34)CC2)cc1` [MLS000090468], above 10000 µM. The same measure, in the same setting: in the case of `COc1ccc(-c2nn3c(-c4ccccn4)nnc3s2)cc1OC` [6-(3,4-dimethoxyphenyl)-3-(2-pyridinyl)-[1,2,4]triazolo[3,4-b][1,3,4]thiadiazole] it was 89.8 µM; in that of `CCOC(=O)c1[nH]c2ccc(OC)cc2c1NC(=O)CN1CCN(c2ccccn2)CC1` [5-methoxy-3-[[1-oxo-2-[4-(2-pyridinyl)-1-piperazinyl]ethyl]amino]-1H-indole-2-carboxylic acid ethyl ester], above 10000 µM; in that of `Cc1occc1C(=O)Nc1nnc(C(F)(F)F)s1` [2-methyl-N-[5-(trifluoromethyl)-1,3,4-thiadiazol-2-yl]-3-furamide], above 10000 µM. With `Cc1cccn2c(=O)c3cc(C#N)/c(=N\C(=O)c4ccc5c(c4)OCO5)n(CC(C)C)c3nc12` [MLS000082296], the 50% inhibitory concentration (IC50) turned out to be 118 µM. Same read-out and setting: as for `COc1ccc(-c2nsc3c(N4CCN(C(=O)c5ccco5)CC4)ncnc23)cc1` [2-furanyl-[4-[3-(4-methoxyphenyl)-7-isothiazolo[4,5-d]pyrimidinyl]-1-piperazinyl]methanone], the figure is 131 µM; as for `COc1cc(NC(=O)c2ccco2)c(OC)cc1NC(=O)CCC(=O)Nc1cc(C)ccc1C` [MLS000072545], above 10000 µM.

`COc1ccc(C2CC(c3cccc(C)c3)n3nc(N)nc3N2)cc1` (stereo not drawn) [5-(4-methoxyphenyl)-7-(3-methylphenyl)-1,5,6,7-tetrahydro-[1,2,4]triazolo[1,5-a]pyrimidin-2-amine] had a half-inhibitory concentration (IC50) above 10000 µM. `CCOc1ccc(N(CC(=O)Nc2ccc(F)c(F)c2)S(=O)(=O)c2c(C)noc2C)cc1` [MLS000117397]: the concentration for half-maximal inhibition (IC50) was above 10000 µM. The compound `CCOC(=O)c1c(C)[nH]c(C(=O)COC(=O)c2ccccc2NC(=O)c2ccco2)c1C` had an IC50 of 62.8 µM.

In turn, `Cc1c(C(=O)NCC2CCCO2)sc2nc(-c3ccccc3)cn12` (stereo not drawn) [3-methyl-6-phenyl-N-(tetrahydrofurfuryl)imidazo[2,1-b]thiazole-2-carboxamide] came in with an IC50 above 10000 µM. The same measure, in the same setting: in the case of `COc1ccc2[nH]c(=O)c(CN(CC3CCCO3)C(=O)Nc3ccccc3)cc2c1` (stereo not drawn) it was 80.7 µM.

Consider `CN(C)Cc1nc2ccccc2c(=O)n1Cc1nc(-c2cc3ccccc3o2)cs1` [3-[[4-(1-benzofuran-2-yl)-1,3-thiazol-2-yl]methyl]-2-[(dimethylamino)methyl]quinazolin-4-one], for which the half-maximal inhibitory concentration (IC50) is above 10000 µM.

In turn, `Cc1nc2cc(NC(=O)NCc3ccco3)ccc2n1C` [1-(1,2-dimethyl-5-benzimidazolyl)-3-(2-furanylmethyl)urea] registered a concentration for half-maximal inhibition (IC50) above 10000 µM. Same read-out and setting: as for `Nc1c(C(=O)NC2CCCC2)c2nc3ccccc3nc2n1N=Cc1cccnc1` [2-amino-N-cyclopentyl-1-(3-pyridinylmethylideneamino)-3-pyrrolo[3,2-b]quinoxalinecarboxamide], the figure is 17.1 µM; as for `COC(=O)c1c(NC(=O)c2ccoc2C)sc2c1CCC2` [2-[(2-methyl-3-furoyl)amino]-5,6-dihydro-4H-cyclopenta[b]thiophene-3-carboxylic acid methyl ester], 98.9 µM; as for `CCc1cc2c(=O)c(-c3nc4ccccc4[nH]3)coc2cc1OC(=O)N1CCOCC1`, 189 µM.

`Cc1nc(-c2cnn(-c3ccccc3)c2)c2cc(C)oc2n1` [SMR000046165] returned an IC50 above 10000 µM. As for `COC(=O)Cn1c(=NC(=O)CSC(C)=O)sc2ccccc21` [2-[2-[2-(acetylthio)-1-oxoethyl]imino-1,3-benzothiazol-3-yl]acetic acid methyl ester], the half-inhibitory concentration (IC50) was above 10000 µM. The same measure, in the same setting: in the case of `Cc1cc(C)c2c(=O)n(CC(=O)N3CCC(Cc4ccccc4)CC3)sc2n1` [2-[2-(4-benzylpiperidin-1-yl)-2-oxoethyl]-4,6-dimethyl-[1,2]thiazolo[5,4-b]pyridin-3-one] it was 221 µM; in that of `CCOc1nc(-c2ccccc2)ccc1-c1noc(-c2ccc(OC)c(OC)c2)n1` [3-[5-(3,4-Dimethoxy-phenyl)-[1,2,4]oxadiazol-3-yl]-2-ethoxy-6-phenyl-pyridine], above 10000 µM; in that of `Cc1ccc(NC(=O)N(CCCN2CCOCC2)Cc2cc3cc4c(cc3[nH]c2=O)OCO4)cc1` [3-(4-methylphenyl)-1-(3-morpholin-4-ylpropyl)-1-[(6-oxidanylidene-5H-[1,3]dioxolo[4,5-g]quinolin-7-yl)methyl]urea], 45.6 µM.

`Nc1c(C(=O)NCCN2CCOCC2)c2nc3ccccc3nc2n1-c1ccc2c(c1)OCO2` [2-amino-1-(1,3-benzodioxol-5-yl)-N-(2-morpholin-4-ylethyl)pyrrolo[3,2-b]quinoxaline-3-carboxamide] gave an IC50 of 87.4 µM. On the same count and under the same terms, as for `O=C(c1ccccc1F)N(Cc1ccccc1)C1CCS(=O)(=O)C1` (stereo not drawn) [MLS000039394], the figure is above 10000 µM; as for `Nc1nc(N)c2sc3nc4c(cc3c2n1)CCC4` [2,3-Dihydro-1H-9-thia-5,7,10-triaza-cyclopenta[b]fluorene-6,8-diamine], above 10000 µM.

Staying with this assay, now noted: inactive by the depositor's call.
`CCn1nc(-c2cccs2)nc2c(=O)n(C)c(=O)nc1-2` [1-ethyl-6-methyl-3-thiophen-2-yl-pyrimido[5,4-e][1,2,4]triazine-5,7-dione] displayed a half-inhibitory concentration (IC50) of 4.73 µM. Still for that read-out and setting: as for `Nc1cccc2c1C(=O)N(c1ccccc1)C2=O` [4-azanyl-2-phenyl-isoindole-1,3-dione], the figure is 60.5 µM; as for `Clc1cccc(-c2ccc(C=Nn3cnnc3)o2)c1` [1-[5-(3-chlorophenyl)-2-furanyl]-N-(1,2,4-triazol-4-yl)methanimine], 101 µM; as for `Nc1nc2c(s1)CCc1c-2cnn1-c1ccccc1` [MLS000085948], 9.51 µM.
